How the values were obtained:
Assay in all cases: relative viability (nuclei count vs DMSO), 5 days (fraction); higher = more cells survive
[1] = test system: NCI-H520
In short: (§1)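 Medians of duplicate plates are given as relative viability. That measure is the nuclei count in treated wells divided by the count in vehicle wells. Counts were taken on 4× images of lung cancer cell lines in 1536-well plates, 5 days after pin-tool dosing the day after seeding with one drug alone or a fixed anchor-drug dose plus five library-drug doses (not always all listed) in √10 steps.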

[2] = test system: NCI-H2170
In short: as §1

[3] = test system: HOP-62
In short: as §1

[4] = test system: NCI-H1793
In short: as §1

[5] = test system: NCI-H23
In short: as §1

[6] = test system: SW 1573
In short: as §1

[7] = test system: PC-14
In short: as §1

[8] = test system: NCI-H2023
In short: as §1

[9] = test system: LOU-NH91
In short: as §1

[10] = test system: NCI-H2405
In short: as §1

[11] = test system: EPLC-272H
In short: as §1

[12] = test system: NCI-H2009
In short: as §1

[13] = test system: HCC-44
In short: as §1

[14] = test system: NCI-H441
In short: as §1

[15] = test system: NCI-H460
In short: as §1

[16] = test system: NCI-H727
In short: as §1

[17] = test system: ChaGo-K-1
In short: as §1

[18] = test system: NCI-H650
In short: as §1

[19] = test system: NCI-H647
In short: as §1

[20] = test system: LCLC-103H
In short: as §1

[21] = test system: NCI-H1437
In short: as §1

[22] = test system: NCI-H2126
In short: as §1

[23] = test system: EMC-BAC-2
In short: as §1

[24] = test system: NCI-H2347
In short: as §1

[25] = test system: SW 900
In short: as §1

SMILES: CCCCCCCCCCCC1=C(O)C(=O)C=C(O)C1=O [Embelin] + N=C(N)NC(=N)NCCc1ccccc1 [Phenformin] (partner 250 µM)
- relative viability ([1]; first compound 0.08 µM): 0.632
- relative viability ([1]; first compound 0.8 µM): 0.352
- relative viability ([1]; first compound 2.53 µM): 0.742
- relative viability ([1]; first compound 8 µM): 0.338
- relative viability ([2]; first compound 0.08 µM): 0.438
- relative viability ([2]; first compound 0.8 µM): 0.489
- relative viability ([2]; first compound 2.53 µM): 0.427
- relative viability ([2]; first compound 8 µM): 0.444
- relative viability ([3]; first compound 0.08 µM): 0.649
- relative viability ([3]; first compound 0.8 µM): 0.701
- relative viability ([3]; first compound 2.53 µM): 0.777
- relative viability ([3]; first compound 8 µM): 0.719
- relative viability ([4]; first compound 0.08 µM): 0.355
- relative viability ([4]; first compound 0.8 µM): 0.42
- relative viability ([4]; first compound 2.53 µM): 0.473
- relative viability ([4]; first compound 8 µM): 0.352
- relative viability ([5]; first compound 0.08 µM): 0.771
- relative viability ([5]; first compound 0.8 µM): 0.753
- relative viability ([5]; first compound 2.53 µM): 0.882
- relative viability ([5]; first compound 8 µM): 0.693
- relative viability ([6]; first compound 0.08 µM): 0.433
- relative viability ([6]; first compound 0.8 µM): 0.366
- relative viability ([6]; first compound 2.53 µM): 0.479
- relative viability ([6]; first compound 8 µM): 0.376
- relative viability ([7]; first compound 0.08 µM): 0.604
- relative viability ([7]; first compound 0.8 µM): 0.988
- relative viability ([7]; first compound 2.53 µM): 0.465
- relative viability ([7]; first compound 8 µM): 0.393
- relative viability ([8]; first compound 0.08 µM): 0.383
- relative viability ([8]; first compound 0.8 µM): 0.469
- relative viability ([8]; first compound 2.53 µM): 0.418
- relative viability ([8]; first compound 8 µM): 0.327
- relative viability ([9]; first compound 0.08 µM): 0.757
- relative viability ([9]; first compound 0.8 µM): 0.895
- relative viability ([9]; first compound 2.53 µM): 0.566
- relative viability ([9]; first compound 8 µM): 0.492
- relative viability ([10]; first compound 0.08 µM): 0.408
- relative viability ([10]; first compound 0.8 µM): 0.445
- relative viability ([10]; first compound 2.53 µM): 0.367
- relative viability ([10]; first compound 8 µM): 0.341
- relative viability ([11]; first compound 0.08 µM): 0.307
- relative viability ([11]; first compound 0.8 µM): 0.288
- relative viability ([11]; first compound 2.53 µM): 0.288
- relative viability ([11]; first compound 8 µM): 0.288
- relative viability ([12]; first compound 0.08 µM): 0.495
- relative viability ([12]; first compound 0.8 µM): 0.598
- relative viability ([12]; first compound 2.53 µM): 0.44
- relative viability ([12]; first compound 8 µM): 0.295
- relative viability ([13]; first compound 0.08 µM): 0.175
- relative viability ([13]; first compound 0.8 µM): 0.252
- relative viability ([13]; first compound 2.53 µM): 0.0967
- relative viability ([13]; first compound 8 µM): 0.0958
- relative viability ([14]; first compound 0.08 µM): 0.698
- relative viability ([14]; first compound 0.8 µM): 0.897
- relative viability ([14]; first compound 2.53 µM): 0.957
- relative viability ([14]; first compound 8 µM): 0.982
- relative viability ([15]; first compound 0.08 µM): 0.535
- relative viability ([15]; first compound 0.8 µM): 0.595
- relative viability ([15]; first compound 2.53 µM): 0.66
- relative viability ([15]; first compound 8 µM): 0.256
- relative viability ([16]; first compound 0.08 µM): 0.563
- relative viability ([16]; first compound 0.8 µM): 0.597
- relative viability ([16]; first compound 2.53 µM): 0.513
- relative viability ([16]; first compound 8 µM): 0.5
- relative viability ([17]; first compound 0.08 µM): 0.547
- relative viability ([17]; first compound 0.8 µM): 0.503
- relative viability ([17]; first compound 2.53 µM): 0.586
- relative viability ([17]; first compound 8 µM): 0.482
- relative viability ([18]; first compound 0.08 µM): 0.436
- relative viability ([18]; first compound 0.8 µM): 0.524
- relative viability ([18]; first compound 2.53 µM): 0.312
- relative viability ([18]; first compound 8 µM): 0.44
- relative viability ([19]; first compound 0.08 µM): 0.632
- relative viability ([19]; first compound 0.8 µM): 0.721
- relative viability ([19]; first compound 2.53 µM): 0.546
- relative viability ([19]; first compound 8 µM): 0.472
- relative viability ([20]; first compound 0.08 µM): 0.337
- relative viability ([20]; first compound 0.8 µM): 0.343
- relative viability ([20]; first compound 2.53 µM): 0.367
- relative viability ([20]; first compound 8 µM): 0.286
- relative viability ([21]; first compound 0.08 µM): 0.4
- relative viability ([21]; first compound 0.8 µM): 0.324
- relative viability ([21]; first compound 2.53 µM): 0.298
- relative viability ([21]; first compound 8 µM): 0.243
- relative viability ([22]; first compound 0.08 µM): 0.556
- relative viability ([22]; first compound 0.8 µM): 0.609
- relative viability ([22]; first compound 2.53 µM): 0.591
- relative viability ([22]; first compound 8 µM): 0.476
- relative viability ([23]; first compound 0.08 µM): 0.56
- relative viability ([23]; first compound 0.8 µM): 0.669
- relative viability ([23]; first compound 2.53 µM): 0.471
- relative viability ([23]; first compound 8 µM): 0.504
- relative viability ([24]; first compound 0.08 µM): 0.308
- relative viability ([24]; first compound 0.8 µM): 0.386
- relative viability ([24]; first compound 2.53 µM): 0.345
- relative viability ([24]; first compound 8 µM): 0.377
- relative viability ([25]; first compound 0.08 µM): 0.778
- relative viability ([25]; first compound 0.8 µM): 0.733
- relative viability ([25]; first compound 2.53 µM): 0.655
- relative viability ([25]; first compound 8 µM): 0.481

From the supplement of paper PMC10307832
